The target in assay [1] is T1, recombinant human dopamine D2L receptors (Homo sapiens, UniProt P14416).
T1 construct: expressed in transfected cells; host or cells: HEK-293 (HEK-D2L cells), membrane homogenates
The experiment in a line: Dopamine binding protocol ([3H]-spiperone binding, HEK-D2L cell membranes). As for the experimental part: Like many clinically effective antipsychotic agents, the compounds of Formula I also are antagonists at the human D2L receptor as determined by [^3H]-spiperone binding studies using human D2L receptors stably expressed in HEK-293 cells.
HEK-293 cells that stably express recombinant human dopamine D2L receptors (HEK-D2L cells) were grown at 37° C. in 5% CO2 as a monolayer in medium consisting of EMEM supplemented with 10% fetal bovine serum and G418 sulfate (500 μg/ml). To prepare membranes for radioligand binding experiments, cells were rinsed twice with phosphate-buffered saline (138 mM NaCl, 4.1 mM KCl, 5.1 mM Na2PO4, 1.5 mM […] 11.1 mM glucose, pH 7.4), and incubated for 5-10 min. at 4° C. in hypotonic lysis buffer consisting of 10 mM Tris (pH 7.4) and 5 mM EDTA. Cells were transferred from plates to polypropylene tubes (16×100 mm), homogenized and centrifuged at 32,000×g for 20 min. Following centrifugation, pellets were resuspended by homogenization in buffer consisting of 50 mM Tris (pH 7.7 at 25° C.) and 1 mM EDTA. Homogenates were stored at −80° C. until needed. On the day of an experiment, homogenates were thawed then centrifuged at 32,000×g for 20 min. Following centrifugation, supernatants were discarded and pellets were resuspended in assay buffer consisting of 50 mM Tris (pH 7.4 at 25° C.), 1 mM EDTA and 6 mM MgCl2. Membrane homogenates (˜5 μg) were incubated with 150 pM [^3H]-spiperone (Amersham Life Science) and increasing concentrations of test compounds for 1.5 hours at 22° C. in a total volume of 400 μl. Reactions were stopped by addition of ice-cold assay buffer and filtration over glass fiber filters (Whatman GFB, pre-soaked in 0.05% polyethylenimine) using a microtitre format Brandel cell harvester. Filters were washed with 3 ml of ice-cold assay buffer. Non-specific binding was defined with 2 μM (+)butaclamol. Ki values were calculated using the method of Cheng and Prusoff (1973). Protein concentrations were determined by the method of Bradford (1976) with BSA as a standard.
Test data IC50 values lower than 250 nM are considered to reflect affinity for dopamine D2L receptors.

In assay [2] the target is T2, human serotonin transporters (Homo sapiens, UniProt P31645).
T2 construct: expressed in transfected cells; host or cells: HEK-293 (HEK-hSERT cells), membrane homogenates
The experiment in a line: Serotonin transporter binding assay ([3H]-citalopram binding, HEK-hSERT cell membranes). From the text:
The compounds of Formula I bind potently to the human 5-HT transporter and inhibit the re-uptake of endogenous serotonin. Selective serotonin reuptake inhibitors (SSRIs) are effective for the treatment of mental depression and have been reported to be useful for treating chronic pain (see: R. W. Fuller, Pharmacologic Modification of Serotonergic Function: Drugs for the Study and Treatment of Psychiatric and Other Disorders,” J. Clin. Psychiatry, 47:4 (Suppl.) April 1986, pp. 4-8). Compounds of the present invention are also envisioned to be useful for treating psychosis, acute mania, mild anxiety states or depression with secondary psychotic episodes. The present compounds are also envisioned to be useful in treating obsessive-compulsive disorders, feeding disorders, anxiety disorders and panic disorders.
HEK-293 cells that stably express human serotonin transporters (HEK-hSERT cells) were grown at 37° C. in 5% CO2 as a monolayer in medium consisting of EMEM supplemented with 10% fetal bovine serum and G418 sulfate (500 μg/ml). To prepare membranes for radioligand binding experiments, cells were rinsed twice with phosphate-buffered saline (138 mM NaCl, 4.1 mM KCl, 5.1 mM Na2PO4, 1.5 mM […], 11.1 mM glucose, pH 7.4). Cells were transferred from plates to polypropylene tubes (16×100 mm), centrifuged at 1,200×g for 5 min and were frozen at −80° C. until assay. Following centrifugation, pellets were resuspended by homogenization in buffer consisting of 50 mM Tris (pH 7.7 at 25° C.), 120 mM NaCl and 5 mM KCl and then centrifuged at 32,000×g for 10 min. Following centrifugation, supernatants were discarded and pellets were resuspended in buffer consisting of 50 mM Tris (pH 7.4 at 25° C.), 150 mM NaCl and 5 mM KCl. Membrane homogenates (200 μl/plate) were incubated with 1 nM [^3H]-citalopram (specific activity=85 Ci/mmol) and increasing concentrations of test compounds for 1 hour at 25° C. in a total volume of 250 μl. The assay buffer consisted of 50 mM Tris (pH 7.4 at 25° C.), 120 mM NaCl and 5 mM KCl (pH 7.4 with conc. HCl). Plates were incubated for 1 hour at 25° C., then filtered through 0.5% PEI treated Whatman GF/B filters using a Brandel cell harvester. Filters were washed three times with 3 ml of ice-cold tris wash buffer. Non-specific binding was defined with 10 μM fluoxetine. Amount of radioligand bound in the presence and absence of competitor was analyzed by plotting (−)log drug concentration versus the amount of radioligand specifically bound. The midpoint of the displacement curve (IC50, nM), signifies the potency. Ki values were calculated using the method of Cheng and Prusoff (1973).
Substances which inhibit the re-uptake of serotonin are recognized to be effective antidepressants (Selective Serotonin Reuptake Inhibitors. Edited by J P Feighner and W F Boyer, Chichester, England. John Wiley & Sons, 1991, pp 89-108). Test data IC50 values lower than 250 nM are considered to reflect activity as an inhibitor of serotonin re-uptake.

Where [3] appears, read: [3H]-spiperone, HEK-D2L membranes, read-out: dopamine D2L ligands with Ki.
Setting [4] is: [3H]-citalopram, HEK-hSERT membranes, read-out: inhibit the re-uptake of serotonin with Ki.

Here are results for 21 molecules from patent US6476051B2, “Antipsychotic heterocycle compounds” (Bristol-Myers Squibb Company, priority 1999, dated 2002).

Like-named read-outs stand apart in the source and are kept apart here. Bounds are passed on as bounds.

T2 sequence (P31645 whole entry): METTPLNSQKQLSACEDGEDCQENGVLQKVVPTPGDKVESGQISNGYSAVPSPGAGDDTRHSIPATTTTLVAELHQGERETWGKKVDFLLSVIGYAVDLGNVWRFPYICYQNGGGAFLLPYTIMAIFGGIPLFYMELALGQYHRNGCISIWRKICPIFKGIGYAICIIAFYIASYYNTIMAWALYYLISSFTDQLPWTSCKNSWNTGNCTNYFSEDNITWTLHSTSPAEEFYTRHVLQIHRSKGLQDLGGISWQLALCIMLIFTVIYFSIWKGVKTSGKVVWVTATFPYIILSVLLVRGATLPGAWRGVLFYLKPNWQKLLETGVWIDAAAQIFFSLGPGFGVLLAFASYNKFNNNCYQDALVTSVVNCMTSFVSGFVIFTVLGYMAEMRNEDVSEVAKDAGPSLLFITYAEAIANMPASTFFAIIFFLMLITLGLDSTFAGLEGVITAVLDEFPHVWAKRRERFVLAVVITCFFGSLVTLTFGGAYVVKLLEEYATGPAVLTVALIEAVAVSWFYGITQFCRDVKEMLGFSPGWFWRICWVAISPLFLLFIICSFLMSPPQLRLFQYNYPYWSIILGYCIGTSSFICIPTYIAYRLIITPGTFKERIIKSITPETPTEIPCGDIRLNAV
T1 sequence (P14416 whole entry): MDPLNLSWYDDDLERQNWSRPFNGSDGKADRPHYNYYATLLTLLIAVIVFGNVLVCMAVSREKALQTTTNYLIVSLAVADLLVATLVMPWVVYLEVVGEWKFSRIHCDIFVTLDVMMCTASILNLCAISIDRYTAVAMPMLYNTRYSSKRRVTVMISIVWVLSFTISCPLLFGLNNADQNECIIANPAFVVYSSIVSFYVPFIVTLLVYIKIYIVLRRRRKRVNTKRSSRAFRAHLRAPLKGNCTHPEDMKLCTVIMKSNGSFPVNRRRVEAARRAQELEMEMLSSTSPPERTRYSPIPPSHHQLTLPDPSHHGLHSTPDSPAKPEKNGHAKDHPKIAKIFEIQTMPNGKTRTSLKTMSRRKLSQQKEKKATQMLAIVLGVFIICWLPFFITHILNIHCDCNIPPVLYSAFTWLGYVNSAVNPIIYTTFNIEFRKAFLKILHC

On to `COc1ccc2[nH]cc(C3=CCN(CCCCCOc4ccc5sc(C)nc5c4)CC3)c2c1` [Example 33, 5-{5-[4-(5-methoxyindol-3-yl)-1,2,5,6-tetrahydropyrid-1-yl]pentoxy}-2-methylbenzothiazole], for which the Ki in assay [1] and in assay [2] was under 100 nM in each case.

For the molecule `Cc1nc2cc(OCCCN3CC=C(c4c[nH]c5c(F)cccc45)CC3)ccc2s1` [Example 17, 5-{3-[4-(7-fluoroindol-3-yl)-1,2,5,6-tetrahydropyrid-1-yl]propoxy}-2-methylbenzothiazole], the Ki in assay [1] and in assay [2] was under 100 nM each time.

Consider `COc1cccc(OCCCN2CCC(c3c[nH]c4ccc(C#N)cc34)CC2)c1` [Example 8, 3-{1-[3-(3-methoxyphenoxy)propyl]-4-piperidinyl}-5-cyanoindole], for which the Ki in assay [1] (setting [3]) and in assay [2] (setting [4]) was under 100 nM each time.

For the molecule `Cc1nc2cc(OCCCCN3CC=C(c4c[nH]c5cc(Cl)ccc45)CC3)ccc2s1` [Example 23, 5-{4-[4-(6-chloroindol-3-yl)1,2,5,6-tetrahydropyrid-1-yl]butoxy}-2-methylbenzothiazole], the Ki in assay [1] and in assay [2] was under 100 nM each time.

`Cc1nc2cc(OCCCN3CC=C(c4c[nH]c5ccc(Br)cc45)CC3)ccc2s1` [Example 36, 5-{3-[4-(5-bromoindol-3-yl)-1,2,5,6-tetrahydropyrid-1-yl]propoxy}-2-methylbenzothiazole]: the inhibition constant Ki in assay [1] and in assay [2] was under 100 nM each time.

Consider `Cc1nc2cc(OCCCCN3CC=C(c4c[nH]c5ccc(F)cc45)CC3)ccc2s1` [Example 15, 5-{4-[4-(5-fluoroindol-3-yl)1,2,5,6-tetrahydropyrid-1-yl]butoxy}-2-methylbenzothiazole], for which the inhibition constant (Ki) in assay [1] and in assay [2] was under 100 nM in each case.

Consider `Cc1nc2cc(OCCCN3CCC(Cc4cccc5c4OCO5)CC3)ccc2s1` [Example 41, 5-{3-[4-(2H-benzo[d]1,3-dioxolan-4-ylmethyl)piperidinyl]propoxy}-2-methylbenzothiazole], for which the inhibition constant Ki in assay [1] (setting [3]) and in assay [2] (setting [4]) was under 100 nM throughout.

In the case of `COc1ccccc1OCCCN1CCC(c2c[nH]c3ccc(C#N)cc23)CC1` [Example 7, 3-{1-[3-(2-methoxyphenoxy)propyl]-4-piperidinyl}-5-cyanoindole], the Ki in assay [1] (setting [3]) and in assay [2] (setting [4]) was under 100 nM in each case.

With `Cc1nc2cc(OCCCCCN3CC=C(c4c[nH]c5ccc(Cl)cc45)CC3)ccc2s1` [Example 21, 5-{5-[4-(5-chloroindol-3-yl)-1,2,5,6-tetrahydropyrid-1-yl]pentoxy}-2-methylbenzothiazole], the Ki in assay [1] and in assay [2] was under 100 nM throughout.

`Cc1nc2cc(OCCCCCN3CC=C(c4c[nH]c5c(F)cccc45)CC3)ccc2s1` [Example 19, 5-{5-[4-(7-fluoroindol-3-yl)-1,2,5,6-tetrahydropyrid-1-yl]pentoxy}-2-methylbenzothiazole]: the Ki in assay [1] and in assay [2] was under 100 nM throughout.

In the case of `Cc1nc2cc(OCCCN3CC=C(c4c[nH]c5ccc(F)cc45)CC3)ccc2s1` [Example 34, 5-{3-[4-(5-fluoroindol-3-yl)-1,2,5,6-tetrahydropyrid-1-yl]propoxy}-2-methylbenzothiazole], the inhibitory constant (Ki) in assay [1] and in assay [2] was under 100 nM in each case.

`Cc1nc2cc(OCCCCN3CC=C(c4c[nH]c5cccc(F)c45)CC3)ccc2s1` [Example 13, 5-{4-[4-(4-fluoroindol-3-yl)1,2,5,6-tetrahydropyrid-1-yl]butoxy}-2-methylbenzothiazole]: the inhibitory constant (Ki) in assay [1] and in assay [2] was under 100 nM throughout.

For the molecule `Cc1nc2cc(OCCCCN3CC=C(c4c[nH]c5ccc(C#N)cc45)CC3)ccc2s1` [Example 38, 5-{4-[4-(5-cyanoindol-3-yl)-1,2,5,6-tetrahydropyrid-1-yl]butoxy}-2-methylbenzothiazole], the Ki in assay [1] and in assay [2] was under 100 nM throughout.

For `Cc1nc2cc(OCCCN3CCC(Cc4cc(F)ccc4Br)CC3)ccc2s1` [Example 44, 5-(3-{4-[(2-bromo-5-fluorophenyl)methyl]piperidinyl}propoxy)-2-methylbenzothiazole], the inhibition constant Ki in assay [1] (setting [3]) and in assay [2] (setting [4]) was under 100 nM throughout.

Consider `Cc1nc2cc(OCCCCCN3CC=C(c4c[nH]c5cc(Cl)ccc45)CC3)ccc2s1` [Example 24, 5-{5-[4-(6-chloroindol-3-yl)-1,2,5,6-tetrahydropyrid-1-yl]pentoxy}-2-methylbenzothiazole], for which the Ki in assay [1] and in assay [2] was under 100 nM each time.

With `N#Cc1ccc2[nH]cc(C3CCN(CCCOc4ccccc4F)CC3)c2c1` [Example 5, 3-{1-[3-(2-fluorophenoxy)propyl]-4-piperidinyl}-5-cyanoindole], the Ki in assay [1] (setting [3]) and in assay [2] (setting [4]) was under 100 nM throughout.

As to `Cc1nc2cc(OCCCCCN3CC=C(c4c[nH]c5ccc(F)cc45)CC3)ccc2s1` [Example 16, 5-{5-[4-(5-fluoroindol-3-yl)-1,2,5,6-tetrahydropyrid-1-yl]pentoxy}-2-methylbenzothiazole], the Ki in assay [1] and in assay [2] was under 100 nM each time.

Regarding `N#Cc1ccc2[nH]cc(C3CCN(CCCOc4ccccc4)CC3)c2c1` [Example 4, 3-[1-(3-phenoxypropyl)-4-piperidinyl]-5-cyanoindole], the inhibitory constant (Ki) in assay [1] (setting [3]) and in assay [2] (setting [4]) was under 100 nM throughout.

With `Cc1nc2cc(OCCCCCN3CC=C(c4c[nH]c5cccc(F)c45)CC3)ccc2s1` [Example 14, 5-{5-[4-(4-fluoroindol-3-yl)-1,2,5,6-tetrahydropyrid-1-yl]pentoxy}-2-methylbenzothiazole], the Ki in assay [1] and in assay [2] was under 100 nM in each case.

Take `Cc1nc2cc(OCCCCN3CC=C(c4c[nH]c5ccc(Cl)cc45)CC3)ccc2s1` [Example 20, 5-{4-[4-(5-chloroindol-3-yl)1,2,5,6-tetrahydropyrid-1-yl]butoxy}-2-methylbenzothiazole]: the Ki in assay [1] and in assay [2] was under 100 nM in each case.

Turning to `Cc1nc2cc(OCCCN3CC=C(c4c[nH]c5cccc(F)c45)CC3)ccc2s1` [Example 11, 5-{3-[4-(4-fluoroindol-3-yl)-1,2,5,6-tetrahydropyrid-1-yl]propoxy}-2-methylbenzothiazole], the Ki in assay [1] and in assay [2] was under 100 nM each time.
